Results reported in paper PMC12265714 (bioRxiv, 2025).

Target: T1, ComFB (FB; Bsu FB) (Bacillus subtilis, UniProt P39146)
T1 sequence (P39146 1-98): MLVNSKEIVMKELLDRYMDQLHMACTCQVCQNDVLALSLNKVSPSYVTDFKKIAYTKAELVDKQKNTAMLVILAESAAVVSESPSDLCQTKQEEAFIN
Assay: isothermal titration calorimetry, one-site model
Assay type: binding

| Kd [µM] | Structure (SMILES) |
| --- | --- |
| 69.1 ± 139 | Nc1ncnc2c1ncn2[C@@H]1O[C@@H]2COP(=O)(O)O[C@H]3[C@@H](O)[C@H](n4cnc5c(N)ncnc54)O[C@@H]3COP(=O)(O)O[C@H]2[C@H]1O [c-di-AMP] |
| 0.14 ± 0.05 | Nc1nc2c(ncn2[C@@H]2O[C@@H]3CO[P@](=O)(O)O[C@H]4[C@@H](O)[C@H](n5cnc6c(=O)[nH]c(N)nc65)O[C@@H]4CO[P@](=O)(O)O[C@H]3[C@H]2O)c(=O)[nH]1 [c-di-GMP] |
